From US11957683B2, “Bicyclic compounds” (Aligos Therapeutics, Inc., priority 2021, dated 2024)
Like-named read-outs stand apart in the source and are kept apart here.

What was measured:
[1] = Cell viability by CellTiter-Glo 2.0 (intracellular ATP) in HepG2.117 cells; type: cell-based; details: human, CellTiter-Glo 2.0, HepG2.117 cells, 3 days incubation
Experimental: (§1) The following assay procedure describes the HBV antiviral assay, using HepG2.117 cells, which carry a stably integrated genotype D HBV genome under the control of a Tet-off promoter, and intracellular HBV DNA quantification as endpoint. Cell viability is assessed in parallel by measuring the intracellular ATP content using CellTiter-Glo 2.0 (Promega).
(§2) On day 1, medium is removed from each well, the test articles are diluted in culture medium without doxcycyline and 100 μL was added to cell culture wells (9 concentrations, 4-fold dilution). For each plate, 6 untreated (merely DMSO) wells are included. The final concentration of DMSO in the culture medium is 2%. Each plate is prepared in duplicate (one for HBV DNA extraction, one for CellTiter-Glo 2.0 measurement). The cells are incubated at 37° C. and 5% CO2 for 3 days.
(§3) On day 4, cell viability is assessed using CellTiter-Glo 2.0 and cell lysates are prepared for HBV DNA extraction and subsequent quantification by qPCR.
Using the other plates, the cell viability is quantified by CellTiter-Glo 2.0 according to the manufacturer's manual. In brief, 100 μL of reagent solution is added to the culture plates and shaken for 2′. The plates are incubated at rt for 10 min and luminescence signal is subsequently measured on a VarioSkan Lux (ThermoFisher) plate reader.
(§4) Cell viability is calculated as follows: % Cell viability=(luminescence value of test sample)/(average luminescence value of 2% DMSO control)×100%. HBV DNA inhibition was calculated as follows: 100−(HBV DNA copy number of test sample)/(average HBV DNA copy number of 2% DMSO control)×100%. No normalization to entecavir is required due to the excellent dynamic window of this assay. The CC50, EC50 and EC90 values were determined by dose-response curves fitted using non-linear regression.

[2] = test system: HBV; test: HBV-DNA antiviral assay using HepG2.117 cells; type: cell-based, HBV genotype D; details: Hepatitis B virus
Experimental: as §1
On day 0, HepG2.117 cells (which are maintained in routine cell culture with doxycycline present in the medium at a final concentration of 1 μg/mL) are seeded in 96-well plates (white with clear bottom) at a density of 2.0×10^4 cells/well (0.1 mL/well) in medium without doxycycline to induce pgRNA transcription and subsequent formation of HBV particles. The cells are incubated at 37° C. and 5% CO2.
as §2, §3
Medium is removed from each well and 100 μL of 0.33% NP-40 in H2O was added to each well. Plates are sealed, incubated at 4° C. for 5 mins, vortexed extensively and centrifuged briefly. Next, 35 μL of lysate is added to 65 μL QuickExtract DNA Extraction Solution (Epicentre) in a PCR plate for each well. PCR plate is incubated at 65° C. for 6 mins, 98° C. for 2 mins and finally cooled to 4° C. HBV DNA is then quantified by qPCR with HBV-specific primers and probes as specified in Table 2 using the Bio-Rad SSOAdvanced Universal Probes Supermix on a CFX96 machine (Bio-Rad). The PCR cycle program consisted of 95° C. for 3 mins, followed by 40 cycles at 95° C. for 10 sec and 60° C. for 30 sec.
A DNA standard is prepared by dilution of an IDT gBlock corresponding to the amplicon with concentrations ranging from 10^2 to 10^8 copies/input (i.e., per 4 μL) and used to generate a standard curve by plotting Cq values vs. HBV DNA standard concentration. The quantity of HBV DNA in each sample is determined by interpolating from the standard curve.
as §4

[3] = 72 h, HBV DNA inhibition, intracellular HBV DNA by qPCR, HepG2.117 cells, 3 days incubation, read-out: EC50

SMILES	CC50 at 3 days [1] [µM]	EC50 [2, 3] [µM]	EC50 ([2]; HepG2.117, 72 h) [µM]
C=C[C@H](C)Nc1nc2c(c(=O)n1-c1ccc3c(cnn3C)c1)C[C@@H](C)N(C(=O)c1ccc(Br)c(C(F)(F)F)c1)C2 [Compound 33, (6R)-7-[4-bromo-3-(trifluoromethyl)benzoyl]-6-methyl-2-[[(1S)-1-methylallyl]amino]-3-(1-methylindazol-5-yl)-6,8-dihydro-5H-pyrido[3,4-d]pyrimidin-4-one]	> 50	< 0.05	–
C=C[C@H](C)Nc1nc2c(c(=O)n1-c1ncc(C(=O)NC)cn1)C[C@@H](C)N(C(=O)c1ccc(Br)c(C(F)(F)F)c1)C2 [Compound 43, 2-[(6R)-7-[4-bromo-3-(trifluoromethyl)benzoyl]-6-methyl-2-[[(1S)-1-methylallyl]amino]-4-oxo-6,8-dihydro-5H-pyrido[3,4-d]pyrimidin-3-yl]-N-methyl-pyrimidine-5-carboxamide]	> 50	< 0.05	–
C=CC1(Nc2nc3c(c(=O)n2-c2ccc(C(=O)NC)cc2)C[C@@H](C)N(C(=O)c2ccc(Br)c(C(F)(F)F)c2)C3)CCC1 [Compound 8]	7.33	< 0.05	–
C=C[C@H](C)Nc1nc2c(c(=O)n1-c1cc(C)c3c(c1)ncn3C)C[C@@H](C)N(C(=O)c1ccc(Br)c(C(F)(F)F)c1)C2 [Compound 47, (6R)-7-[4-bromo-3-(trifluoromethyl)benzoyl]-3-(1,7-dimethylbenzimidazol-5-yl)-6-methyl-2-[[(1S)-1-methylallyl]amino]-6,8-dihydro-5H-pyrido[3,4-d]pyrimidin-4-one]	23.7	< 0.05	–
C=C[C@H](C)Nc1nc2c(c(=O)n1-c1ccc3c(c1)nnn3C)C[C@@H](C)N(C(=O)c1ccc(Br)c(C(F)(F)F)c1)C2 [Compound 13, (R)-7-(4-bromo-3-(trifluoromethyl)benzoyl)-2-(((S)-but-3-en-2-yl)amino)-6-methyl-3-(1-methyl-1H-benzo[d][1,2,3]triazol-5-yl)-5,6,7,8-tetrahydropyrido[3,4-d]pyrimidin-4(3H)-one]	48	< 0.05	–
C=C[C@H](C)Nc1nc2c(c(=O)n1-c1ccc3c(c1)nc(C)n3C)C[C@@H](C)N(C(=O)c1ccc(Br)c(C(F)(F)F)c1)C2 [Compound 28, (R)-7-(4-bromo-3-(trifluoromethyl)benzoyl)-2-(((S)-but-3-en-2-yl)amino)-3-(1,2-dimethyl-1H-benzo[d]imidazol-5-yl)-6-methyl-5,6,7,8-tetrahydropyrido[3,4-d]pyrimidin-4(3H)-one]	30.5	< 0.05	–
C=C[C@H](C)Nc1nc2c(c(=O)n1-c1ccc(C(=O)NC)c(Cl)c1)C[C@@H](C)N(C(=O)c1ccc(Br)c(C(F)(F)F)c1)C2 [Compound 20, 4-((R)-7-(4-bromo-3-(trifluoromethyl)benzoyl)-2-(((S)-but-3-en-2-yl)amino)-6-methyl-4-oxo-5,6,7,8-tetrahydropyrido[3,4-d]pyrimidin-3(4H)-yl)-2-chloro-N-methylbenzamide]	2.95	< 0.05	–
C=C[C@H](C)Nc1nc2c(c(=O)n1-c1ccc(OC3CC3)cc1)C[C@@H](C)N(C(=O)c1ccc(Br)c(C(F)(F)F)c1)C2 [Compound 12, (R)-7-(4-bromo-3-(trifluoromethyl)benzoyl)-2-((S)-but-3-en-2-ylamino)-3-(4-cyclopropoxyphenyl)-6-methyl-5,6,7,8-tetrahydropyrido[3,4-d]pyrimidin-4(3H)-one]	> 50	< 0.05	–
C=CCNc1nc2c(c(=O)n1-c1ccc(C(=O)NC)cc1)C[C@@H](C)N(C(=O)c1ccc(Br)c(C(F)(F)F)c1)C2 [Compound 5]	> 50	< 0.05	–
C=C[C@H](C)Nc1nc2c(c(=O)n1-c1ccc(-c3nnc(C)[nH]3)cc1)C[C@@H](C)N(C(=O)c1ccc(Br)c(C(F)(F)F)c1)C2 [Compound 4a, (R)-7-(4-bromo-3-(trifluoromethyl)benzoyl)-2-(((S)-but-3-en-2-yl)amino)-6-methyl-3-(4-(5-methyl-4H-1,2,4-triazol-3-yl)phenyl)-5,6,7,8-tetrahydropyrido[3,4-d]pyrimidin-4(3H)-one]	> 0.5	–	< 0.05
C=C[C@@H](C)Nc1nc2c(c(=O)n1-c1ccc(-c3nncn3C)cc1)C[C@@H](C)N(C(=O)c1ccc(Br)c(C(F)(F)F)c1)C2 [Compound 22, (R)-7-(4-bromo-3-(trifluoromethyl)benzoyl)-2-(((R)-but-3-en-2-yl)amino)-6-methyl-3-(4-(4-methyl-4H-1,2,4-triazol-3-yl)phenyl)-5,6,7,8-tetrahydropyrido[3,4-d]pyrimidin-4(3H)-one]	> 50	< 0.05	–
C=C[C@H](C)Nc1nc2c(c(=O)n1-c1ccn3c(C)nnc3c1)C[C@@H](C)N(C(=O)c1ccc(Br)c(C(F)(F)F)c1)C2 [Compound 36, (6R)-7-[4-bromo-3-(trifluoromethyl)benzoyl]-6-methyl-2-[[(1S)-1-methylallyl]amino]-3-(3-methyl-[1,2,4]triazolo[4,3-a]pyridin-7-yl)-6,8-dihydro-5H-pyrido[3,4-d]pyrimidin-4-one]	> 50	< 0.05	–
CNC(=O)c1ccc(-n2c(NCC=C(C)C)nc3c(c2=O)C[C@@H](C)N(C(=O)c2ccc(Br)c(C(F)(F)F)c2)C3)cc1 [Compound 7]	7.35	< 0.05	–
C=C[C@H](C)Nc1nc2c(c(=O)n1-c1ccc(C(=O)NC)nc1)C[C@@H](C)N(C(=O)c1ccc(Br)c(C(F)(F)F)c1)C2 [Compound 41, 5-[(6R)-7-[4-bromo-3-(trifluoromethyl)benzoyl]-6-methyl-2-[[(1S)-1-methylallyl]amino]-4-oxo-6,8-dihydro-5H-pyrido[3,4-d]pyrimidin-3-yl]-N-methyl-pyridine-2-carboxamide]	> 50	< 0.05	–
C=C[C@H](C)Nc1nc2c(c(=O)n1-c1cc(C(=O)NC)n(C)n1)C[C@@H](C)N(C(=O)c1ccc(Br)c(C(F)(F)F)c1)C2 [Compound 9, 3-((R)-7-(4-bromo-3-(trifluoromethyl)benzoyl)-2-(((S)-but-3-en-2-yl)amino)-6-methyl-4-oxo-5,6,7,8-tetrahydropyrido[3,4-d]pyrimidin-3(4H)-yl)-N,1-dimethyl-1H-pyrazole-5-carboxamide]	> 50	< 0.05	–
C=CC(C)(C)Nc1nc2c(c(=O)n1-c1ccc3c(c1)ncn3C)C[C@@H](C)N(C(=O)c1ccc(Br)c(C(F)(F)F)c1)C2 [Compound 29, (R)-7-(4-bromo-3-(trifluoromethyl)benzoyl)-6-methyl-3-(1-methyl-1H-benzo[d]imidazol-5-yl)-2-((2-methylbut-3-en-2-yl)amino)-5,6,7,8-tetrahydropyrido[3,4-d]pyrimidin-4(3H)-one]	30.5	< 0.05	–
C=C[C@H](C)Nc1nc2c(c(=O)n1-c1ccc(C(=O)NC)nn1)C[C@@H](C)N(C(=O)c1ccc(Br)c(C(F)(F)F)c1)C2 [Compound 30, 6-((R)-7-(4-bromo-3-(trifluoromethyl)benzoyl)-2-(((S)-but-3-en-2-yl)amino)-6-methyl-4-oxo-5,6,7,8-tetrahydropyrido[3,4-d]pyrimidin-3(4H)-yl)-N-methylpyridazine-3-carboxamide]	> 50	< 0.05	–
C=C[C@H](C)Nc1nc2c(c(=O)n1-c1ccc3ncn(C)c3c1)C[C@@H](C)N(C(=O)c1ccc(Br)c(C(F)(F)F)c1)C2 [Compound 25, (R)-7-(4-bromo-3-(trifluoromethyl)benzoyl)-2-(((S)-but-3-en-2-yl)amino)-6-methyl-3-(1-methyl-1H-benzo[d]imidazol-6-yl)-5,6,7,8-tetrahydropyrido[3,4-d]pyrimidin-4(3H)-one]	29.7	< 0.05	–
